Assay results: patent publication US20090317357A1, “Methods for treating or preventing autoimmune disease using histamine h1 receptor-blocking agents” (priority 2003, published 2009)

Tests used:
EAE = conditions: cited: Inaba et al. 1999; Inoue et al. 1996; cited from earlier work
EAE in SJL (H-2s) mice = experiment: EAE induced with PLP139-151 in SJL mice, daily i.p. treatment with H1R or PAFR antagonist; assay type: in vivo; conditions: day 13, daily i.p. from day 2 after induction, pyrilamine 0.6 mg/mouse, CV6209 1 μg/mouse, vehicle group 3±0.52
Experimental: Modulation of EAE with H1R antagonist and PAFR antagonist. EAE was induced in SJL/J mice with PLP139-151. The H1R antagonist pyrilamine (0.6 mg/mouse; n=8), PAFR antagonist CV6209 (1 μg/mouse; n=8), or vehicle alone (PBS; n=7) were given daily i.p. starting on day 2 after the induction of EAE.
Mice were assessed daily for clinical signs of EAE (see id.). For each mouse, a remission was defined as decrease of the score of at least one point for at least 2 consecutive days. […] In the pharmacological studies, the histamine receptor 1 antagonist, pyrilamine (Sigma, St Louis, Mo.) and the PAF antagonist, CV6209 (Biomol, Plymouth Meeting, Pa.) were injected daily i.p. in PBS starting 2 days after the induction of EAE.
We targeted pharmacologically PAF and histamine, the main vasoactive mediators of murine anaphylaxis, and evaluated the development of EAE. EAE was induced in SJL (H-2s) mice with PLP139-151 and on the second day after the induction of the disease we started a daily i.p. treatment with the PAFR antagonist CV 6209, or with the H1R antagonist pyrilamine.

Row | Compound | effect on EAE (EAE) | mean EAE score (EAE in SJL (H-2s) mice)
1 | batroxobin | ameliorate EAE | 
2 | COc1ccc(CN(CCN(C)C)c2ccccn2)cc1 [pyrilamine] |  | 0.57±0.2
3 | CCCCCCCCCCCCCCCCCCNC(=O)OCC(COC(=O)N(Cc1cccc[n+]1CC)C(C)=O)OC (stereo not shown) [CV 6209] |  | 0.71±0.36
4 | dermatan sulfate | ameliorate EAE | 
